In patent US20080300298A1, “Honokiol Derivates For the Treatment of Proliferative Disorders” (priority 2005, published 2008):

Columns and labels:
Assay in all cases: APO2.7 staining
Assay type in all cases: cell-based, human
MM.1S cells = details: 10 ug/ml, 24 h
Method: (§1) Assessment of HNK-induced cytotoxicity against patient MM cells: […] A CD38^high fraction enriched for MM cells was determined in side and forward scatter panel in each case. The expression of CD138 on gated cells was also evaluated. After HNK-treatment for 48 h, cells were harvested and percentage of CD38^high cells with or without HNK-treatment was evaluated. Cell cycle analysis: MM cells cultured with HNK were harvested, fixed with 70% ethanol, and pretreated with 250 μg/mL of RNAse (Sigma, St Louis, Mo.). Cells were stained with propidium iodide (PI; 50 μg/mL; Sigma, St Louis, Mo.), and cell cycle profile was determined by using the program M software on an EPICS XL flow cytometer (Beckman Coulter, Hialeah, Fla.). Detection of apoptosis and caspase-3 activity: TdT-mediated d-UTP nick end labeling (TUNEL) assay (MBL, Nagoya, Japan) and APO 2.7 staining (Immunotech, Marseille, France) were used to determine apoptosis. In brief, cells were fixed and permeabilzed by 4% paraformaldehyde and 70% ethanol, respectively, and incubated with a mixture of FITC-dUTP and TdT for 1 h at 37° C. for TUNEL assay. For detection of mitochondrial membrane protein 7A6 expression on apoptotic cells, cells were incubated with APO 2.7 reagent for 20 minutes. Fluorescence intensity of TUNEL and APO 2.7 staining was determined using on EPICS XL flow cytometer. Cytotoxicity was determined by trypan blue exclusion assay. […] Cell growth and induction of apoptosis were determined both by colorimetric assay and now cytometric detection of APO2.7 after 48 h treatment. […] Proliferation of MM cells was then assessed by [^3H]-thymidine uptake. […] DNA synthesis was measured by [^3H]-thymidine uptake. […] Angiogenesis assay: The anti-angiogenic effect of HNK was determined using an In Vitro Angiogenesis Assay Kit (Chemicon, Temecula, Calif.). […] After 6 h, tube formation by endothelial cells was evaluated. Direct toxicity of HNK against HUVEC was determined by calorimetric assay. […]

normal PBMNCs = details: 15 ug/ml, 48 h, n=3
Method: as §1

RPM18226 cells = details: RPM18226, 10 ug/ml, 24 h
Method: as §1

C=CCc1ccc(O)c(-c2ccc(O)c(CC=C)c2)c1 [HNK, Honokiol]
APO2.7 positive cells (MM.1S cells): 21.7±3.4% | APO2.7 positive cells in normal PBMNCs (normal PBMNCs): did not induce APO2.7 positive cells | APO2.7 positive cells (RPM18226 cells): 32.9±0.6%
